Results: patent publication US10858360B2, “Tricyclic gyrase inhibitors” (priority 2011, dated 2020)
In brackets after ≈: the same amount, converted by molar mass.

Experiments:
E. coli ATCC 25922 = assay: MIC, E. coli ATCC 25922; assay type: cell-based; conditions: Alamar Blue read after overnight incubation at 35° C.; for MIC Ec: E. coli; for MIC: Escherichia coli, ATCC25922, E. coli
S. aureus ATCC 13709 = assay: MIC, S. aureus ATCC 13709 (Alamar Blue broth microdilution); assay type: cell-based; conditions: Alamar Blue read after overnight incubation at 35° C.; for MIC Sa: S. aureus; for MIC: Staphylococcus aureus, ATCC13709, S. aureus

## CNc1cc(F)cc2c1[nH]c1nc(Oc3cnc(N4CCOCC4)nc3)nc(N3CCC(N)C3)c12 (stereo not drawn) [4.212]
E. coli ATCC 25922
  MIC Ec: ≤0.5 µg/mL
S. aureus ATCC 13709
  MIC Sa: ≤0.5 µg/mL

## CNc1cc(F)cc2c1[nH]c1nc(Oc3cnc(N4CCOCC4)nc3)nc(N3CC(N)C4(CC4)C3)c12 (stereo not drawn) [4.213]
E. coli ATCC 25922
  MIC Ec: 1 µg/mL (≈ 1.98 µM)
S. aureus ATCC 13709
  MIC Sa: ≤0.5 µg/mL

## CNc1cc(F)cc2c1[nH]c1nc(Oc3cnc(N4CCOCC4)nc3)nc(N3CCC4(CC4N)C3)c12 (stereo not drawn) [4.214]
E. coli ATCC 25922
  MIC: 2 µg/mL (≈ 3.96 µM)
S. aureus ATCC 13709
  MIC: ≤ 0.5 µg/mL

## CNc1cc(F)cc2c1[nH]c1nc(Oc3cnc(N4CCOCC4)nc3)nc(N3CCC(CN)C3)c12 (stereo not drawn) [4.215]
E. coli ATCC 25922
  MIC: 4 µg/mL (≈ 8.1 µM)
S. aureus ATCC 13709
  MIC: ≤ 0.5 µg/mL

## CNc1ncc(Oc2nc(N3CC(N)C4(CC4)C3)c3c(n2)[nH]c2c(NC)cc(F)cc23)cn1 (stereo not drawn) [4.216]
E. coli ATCC 25922
  MIC Ec: ≤0.5 µg/mL
S. aureus ATCC 13709
  MIC Sa: ≤0.5 µg/mL

## CNc1ncc(Oc2nc(N3CC4C(N)C4C3)c3c(n2)[nH]c2c(NC)cc(F)cc23)cn1 (stereo not drawn) [4.218]
E. coli ATCC 25922
  MIC: ≤ 0.5 µg/mL
S. aureus ATCC 13709
  MIC: ≤ 0.5 µg/mL

## CNc1ncc(Oc2nc(N3CCC(N)C3)c3c(n2)[nH]c2c(NC)cc(F)cc23)cn1 (stereo not drawn) [4.219]
E. coli ATCC 25922
  MIC Ec: ≤0.5 µg/mL
S. aureus ATCC 13709
  MIC Sa: ≤0.5 µg/mL

## CNc1ncc(Oc2nc(N3CCC4(CC4N)C3)c3c(n2)[nH]c2c(NC)cc(F)cc23)cn1 (stereo not drawn) [4.220]
E. coli ATCC 25922
  MIC: ≤ 0.5 µg/mL
S. aureus ATCC 13709
  MIC: ≤ 0.5 µg/mL

## CNc1ncc(Oc2nc(N3CC4CC(N)C4C3)c3c(n2)[nH]c2c(NC)cc(F)cc23)cn1 (stereo not drawn) [4.221]
E. coli ATCC 25922
  MIC: 2 µg/mL (≈ 4.45 µM)
S. aureus ATCC 13709
  MIC: ≤ 0.5 µg/mL

## CNc1cc(F)cc2c1[nH]c1nc(Oc3cnc(NC4CC4)nc3)nc(N3CCC(N)C3)c12 (stereo not drawn) [4.222]
E. coli ATCC 25922
  MIC Ec: ≤0.5 µg/mL
S. aureus ATCC 13709
  MIC Sa: ≤0.5 µg/mL

## CNc1cc(F)cc2c1[nH]c1nc(Oc3cnc(NC4CC4)nc3)nc(N3CC4C(N)C4C3)c12 (stereo not drawn) [4.223]
E. coli ATCC 25922
  MIC: ≤ 0.5 µg/mL
S. aureus ATCC 13709
  MIC: ≤ 0.5 µg/mL

## CNc1cc(F)cc2c1[nH]c1nc(Oc3cncc(-c4nn[nH]n4)c3)nc(N3CC4C(N)C4C3)c12 (stereo not drawn) [4.224]
E. coli ATCC 25922
  MIC: > 16 µg/mL
S. aureus ATCC 13709
  MIC: 1 µg/mL (≈ 2.11 µM)

## CNc1cc(F)cc2c1[nH]c1nc(Oc3cnc4c(c3)ncn4C)nc(N3CCC(N)C3)c12 (stereo not drawn) [4.225]
E. coli ATCC 25922
  MIC Ec: 2 µg/mL (≈ 4.47 µM)
S. aureus ATCC 13709
  MIC Sa: ≤0.5 µg/mL

## CNc1cc(F)cc2c1[nH]c1nc(Oc3cnc4c(c3)ncn4C)nc(N3CC4CC(N)C4C3)c12 (stereo not drawn) [4.226]
E. coli ATCC 25922
  MIC Ec: 2 µg/mL (≈ 4.22 µM)
S. aureus ATCC 13709
  MIC Sa: ≤0.5 µg/mL

## CNc1cc(F)cc2c1[nH]c1nc(Oc3cnc4c(c3)ncn4C)nc(N3CC4C[C@@H](N)C4C3)c12 (stereo partly drawn) [4.227]
E. coli ATCC 25922
  MIC: 1 µg/mL (≈ 2.11 µM)
S. aureus ATCC 13709
  MIC: ≤ 0.5 µg/mL

## CNc1cc(F)cc2c1[nH]c1nc(Oc3cnc4c(c3)ncn4C)nc(N3CC4CC3CC4N)c12 (stereo not drawn) [4.228]
E. coli ATCC 25922
  MIC Ec: 1 µg/mL (≈ 2.11 µM)
S. aureus ATCC 13709
  MIC Sa: ≤0.5 µg/mL

## CNc1cc(F)cc2c1[nH]c1nc(Oc3cnc(N4CCN(C(C)=O)CC4)nc3)nc(N3CCC(N)C3)c12 (stereo not drawn) [4.229]
E. coli ATCC 25922
  MIC Ec: 2 µg/mL (≈ 3.84 µM)
S. aureus ATCC 13709
  MIC Sa: ≤0.5 µg/mL

## CNc1cc(F)cc2c1[nH]c1nc(Oc3ccnnc3)nc(N3CC(N)C4(CC4)C3)c12 (stereo not drawn) [4.230]
E. coli ATCC 25922
  MIC Ec: >16 µg/mL
S. aureus ATCC 13709
  MIC Sa: 32 µg/mL (≈ 76.1 µM)

## CNc1cc(F)cc2c1[nH]c1nc(Oc3ccc4nc[nH]c(=O)c4c3)nc(N3CC4C(N)C4C3)c12 (stereo not drawn) [4.231]
E. coli ATCC 25922
  MIC Ec: 2 µg/mL (≈ 4.23 µM)
S. aureus ATCC 13709
  MIC Sa: ≤0.5 µg/mL

## CNc1cc(F)cc2c1[nH]c1nc(Oc3cnc(C(C)C)nc3)nc(N3CC4C(N)C4C3)c12 (stereo not drawn) [4.232]
E. coli ATCC 25922
  MIC Ec: ≤0.5 µg/mL
S. aureus ATCC 13709
  MIC Sa: ≤0.5 µg/mL

## CNc1cc(F)cc2c1[nH]c1nc(Oc3cnc(C(C)C)nc3)nc(N3C[C@H](N)C4(CC4)C3)c12 [4.233]
E. coli ATCC 25922
  MIC: 1 µg/mL (≈ 2.16 µM)
S. aureus ATCC 13709
  MIC: ≤ 0.5 µg/mL
